Laboratory results taken from US11140318B2, “Laser endoscope device” (Mie University, priority 2016, dated 2021).
Like-named read-outs stand apart in the source and are kept apart here.

Legend:
[1] = tested on: cancer tissue; conditions: mouse, in vivo
From the text: (§1) The finding 3 will be described with reference to a case where a cell morphology in a living body is imaged under the multiphoton laser microscope (FV1000MPE manufactured by Olympus Corporation) while changing the focal point position and a plurality of captured images are cut in a predetermined position to create a cross-sectional image (tomographic image). A laboratory mouse was used as the living body.
(§2) As the stain for staining the cell group, both the stain containing curcumin and the stain containing Acid Red (red #106) were used. The staining period was set at 5 minutes. The staining period is the period for which the stain is caused to be in contact with the cell group and the dye of the stain is allowed to penetrate into the cells themselves or the gaps between the cells.

[2] = tested on: healthy mucosa tissue; conditions: mouse, in vivo
From the text: as §1, §2

| SMILES | depth to which the tissue is stained ([1]; 5 min) | depth to which the tissue is stained ([2]; 5 min) | depth to which the tissue is stained [1] | depth to which the tissue is stained [2] |
| --- | --- | --- | --- | --- |
| COc1cc(/C=C/C(=O)CC(=O)/C=C/c2ccc(O)c(OC)c2)ccc1O [curcumin dye, curcumin] | about 40 μm | about 20 μm | – | – |
| CCN(CC)c1ccc2c(-c3ccc(S(=O)(=O)[O-])cc3S(=O)(=O)[O-])c3ccc(=[N+](CC)CC)cc-3oc2c1.[Na+] [Acid Red dye, Acid Red] | – | – | about 40 μm | about 70 μm |
